Measurements taken from patent publication US11339419B2, “Scavenger protein(s) for improved preservation of analyte detection sensor(s) and method(s) of use thereof” (Siemens Healthcare Diagnostics Inc., priority 2017, dated 2022).
Values joined by “and” are separate entries in the source; they are usually repeats but may differ in a detail not shown here. Identical values can stand only once.

System: creatininase (Toyobo)
Assay: Toyobo Creatininase Enzyme Absorbance with BSA and MIT
Assay type: biochemical
[1] = Day 0, 5 mg/mL BSA, no MIT (row of 50 ppm MIT)
[2] = Day 0, 5 mg/mL BSA, no MIT (row of 100 ppm MIT)
[3] = Day 0, 25 mg/mL BSA, no MIT (row of 50 ppm MIT)
[4] = Day 0, 25 mg/mL BSA, no MIT (row of 100 ppm MIT)
[5] = Day 0, 50 mg/mL BSA, no MIT (row of 50 ppm MIT)
[6] = Day 0, 50 mg/mL BSA, no MIT (row of 100 ppm MIT)
[7] = Day 0, 50 ppm MIT, 25 mg/mL BSA
[8] = Day 0, 50 ppm MIT, 50 mg/mL BSA
[9] = Day 0, 100 ppm MIT, 5 mg/mL BSA
[10] = Day 0, 100 ppm MIT, 25 mg/mL BSA
[11] = Day 0, 100 ppm MIT, 50 mg/mL BSA
[12] = Day 4, 50 ppm MIT, 25 mg/mL BSA
[13] = Day 4, 50 ppm MIT, 50 mg/mL BSA
[14] = Day 4, 100 ppm MIT, 5 mg/mL BSA
[15] = Day 4, 100 ppm MIT, 25 mg/mL BSA
[16] = Day 4, 100 ppm MIT, 50 mg/mL BSA
[17] = Day 14, 50 ppm MIT, 5 mg/mL BSA
[18] = Day 14, 50 ppm MIT, 25 mg/mL BSA
[19] = Day 14, 50 ppm MIT, 50 mg/mL BSA

bovine serum albumin [BSA]
Creatininase Enzyme Absorbance, columns 7-11 [1]: 0.791 and 0.78
MEAN (columns 7-11) [1]: 0.59
Creatininase Enzyme Absorbance, columns 7-11 [2]: 0.806 and 0.802 and 0.845
MEAN (columns 7-11) [2]: 0.61
Creatininase Enzyme Absorbance, columns 7-11 [3]: 0.767
MEAN (columns 7-11) [3]: 0.58
Creatininase Enzyme Absorbance, columns 7-11 [4]: 0.751 and 0.768 and 0.799 and 0.806
MEAN (columns 7-11) [4]: 0.57
Creatininase Enzyme Absorbance, columns 7-11 [5]: 0.845
MEAN (columns 7-11) [5]: 0.64
Creatininase Enzyme Absorbance, columns 7-11 [6]: 0.735 and 0.782 and 0.778
MEAN (columns 7-11) [6]: 0.55
% Bias (Day 0, 50 ppm MIT vs no MIT, 5 mg/mL BSA): 6.6%
% Bias (Day 0, 50 ppm MIT vs no MIT, 25 mg/mL BSA): 8.6%
% Bias (Day 0, 50 ppm MIT vs no MIT, 50 mg/mL BSA): 4.9%
Creatininase Enzyme Absorbance (Day 0, 50 ppm MIT, 5 mg/mL BSA): 0.893 and 0.808 and 0.806 and 0.812 and 0.843
MEAN (Day 0, 50 ppm MIT, 5 mg/mL BSA): 0.63
Creatininase Enzyme Absorbance [7]: 0.895 and 0.829 and 0.788 and 0.82 and 0.831
MEAN [7]: 0.63
Creatininase Enzyme Absorbance [8]: 0.905 and 0.862 and 0.847 and 0.863 and 0.895
MEAN [8]: 0.67
% Bias (Day 0, 100 ppm MIT vs no MIT, 5 mg/mL BSA): 7.6%
% Bias (Day 0, 100 ppm MIT vs no MIT, 25 mg/mL BSA): 10.4%
% Bias (Day 0, 100 ppm MIT vs no MIT, 50 mg/mL BSA): 10.1%
Creatininase Enzyme Absorbance [9]: 0.922 and 0.849 and 0.843 and 0.844 and 0.859
MEAN [9]: 0.66
Creatininase Enzyme Absorbance [10]: 0.905 and 0.838 and 0.807 and 0.795 and 0.811
MEAN [10]: 0.63
Creatininase Enzyme Absorbance [11]: 0.867 and 0.794 and 0.799 and 0.792 and 0.771
MEAN [11]: 0.60
MEAN (columns 7-11) (Day 4, 5 mg/mL BSA, no MIT (row of 50 ppm MIT)): 0.81
MEAN (columns 7-11) (Day 4, 5 mg/mL BSA, no MIT (row of 100 ppm MIT)): 0.77
MEAN (columns 7-11) (Day 4, 25 mg/mL BSA, no MIT (row of 50 ppm MIT)): 0.64
MEAN (columns 7-11) (Day 4, 25 mg/mL BSA, no MIT (row of 100 ppm MIT)): 0.62
MEAN (columns 7-11) (Day 4, 50 mg/mL BSA, no MIT (row of 50 ppm MIT)): 0.52
MEAN (columns 7-11) (Day 4, 50 mg/mL BSA, no MIT (row of 100 ppm MIT)): 0.51
% Bias (Day 4, 50 ppm MIT vs no MIT, 5 mg/mL BSA): −0.2%
% Bias (Day 4, 50 ppm MIT vs no MIT, 25 mg/mL BSA): 1.5%
% Bias (Day 4, 50 ppm MIT vs no MIT, 50 mg/mL BSA): 1.9%
Creatininase Enzyme Absorbance (Day 4, 50 ppm MIT, 5 mg/mL BSA): 1.031 and 0.998 and 1.012 and 1.044 and 1.01
MEAN (Day 4, 50 ppm MIT, 5 mg/mL BSA): 0.81
Creatininase Enzyme Absorbance [12]: 0.867 and 0.847 and 0.853 and 0.878 and 0.873
MEAN [12]: 0.65
Creatininase Enzyme Absorbance [13]: 0.737 and 0.728 and 0.749 and 0.75 and 0.765
MEAN [13]: 0.53
% Bias (Day 4, 100 ppm MIT vs no MIT, 5 mg/mL BSA): 2.2%
% Bias (Day 4, 100 ppm MIT vs no MIT, 25 mg/mL BSA): 5.6%
% Bias (Day 4, 100 ppm MIT vs no MIT, 50 mg/mL BSA): 7.0%
Creatininase Enzyme Absorbance [14]: 0.998 and 0.974 and 1.006 and 1.008 and 1.031
MEAN [14]: 0.79
Creatininase Enzyme Absorbance [15]: 0.871 and 0.863 and 0.869 and 0.86 and 0.866
MEAN [15]: 0.65
Creatininase Enzyme Absorbance [16]: 0.773 and 0.775 and 0.754 and 0.734 and 0.742
MEAN [16]: 0.54
MEAN (columns 7-11) (Day 14, 5 mg/mL BSA, no MIT (row of 50 ppm MIT)): 0.90
MEAN (columns 7-11) (Day 14, 5 mg/mL BSA, no MIT (row of 100 ppm MIT)): 0.87
MEAN (columns 7-11) (Day 14, 25 mg/mL BSA, no MIT (row of 50 ppm MIT)): 0.70
MEAN (columns 7-11) (Day 14, 25 mg/mL BSA, no MIT (row of 100 ppm MIT)): 0.72
MEAN (columns 7-11) (Day 14, 50 mg/mL BSA, no MIT (row of 50 ppm MIT)): 0.55
MEAN (columns 7-11) (Day 14, 50 mg/mL BSA, no MIT (row of 100 ppm MIT)): 0.56
% Bias (Day 14, 50 ppm MIT vs no MIT, 5 mg/mL BSA): −1.7%
% Bias (Day 14, 50 ppm MIT vs no MIT, 25 mg/mL BSA): 10.4%
% Bias (Day 14, 50 ppm MIT vs no MIT, 50 mg/mL BSA): 3.9%
Creatininase Enzyme Absorbance [17]: 1.13 and 1.104 and 1.098 and 1.12 and 1.117
MEAN [17]: 0.88
Creatininase Enzyme Absorbance [18]: 1.021 and 0.986 and 0.982 and 1.025 and 0.996
MEAN [18]: 0.77
Creatininase Enzyme Absorbance [19]: 0.814 and 0.793 and 0.789 and 0.796 and 0.804
MEAN [19]: 0.57
% Bias (Day 14, 100 ppm MIT vs no MIT, 5 mg/mL BSA): 4.1%
% Bias (Day 14, 100 ppm MIT vs no MIT, 25 mg/mL BSA): 3.3%
% Bias (Day 14, 100 ppm MIT vs no MIT, 50 mg/mL BSA): 6.0%
